This test addresses T1, IRAK4 (Homo sapiens, UniProt Q9NWZ3).
T1 sequence (Q9NWZ3 1-460): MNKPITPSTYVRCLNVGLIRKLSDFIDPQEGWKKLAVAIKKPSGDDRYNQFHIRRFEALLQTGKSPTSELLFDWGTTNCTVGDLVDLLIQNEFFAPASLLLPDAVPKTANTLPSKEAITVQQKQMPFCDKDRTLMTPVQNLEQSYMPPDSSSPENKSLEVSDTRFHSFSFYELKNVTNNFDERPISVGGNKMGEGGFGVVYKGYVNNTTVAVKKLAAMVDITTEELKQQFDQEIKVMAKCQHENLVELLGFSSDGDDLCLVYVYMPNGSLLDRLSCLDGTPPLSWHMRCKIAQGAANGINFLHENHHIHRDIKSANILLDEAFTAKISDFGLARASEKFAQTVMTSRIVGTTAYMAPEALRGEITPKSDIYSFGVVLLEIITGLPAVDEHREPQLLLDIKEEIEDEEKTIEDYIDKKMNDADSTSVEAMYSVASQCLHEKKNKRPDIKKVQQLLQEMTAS
In words: OCI-LY-10 degradation assay (western blot, % IRAK4 degraded after 4 hours). The test is classed as cell-based. Also noted: endogenous in cells; host or cells: OCI-LY10. The conditions noted are these: OCI-LY10 cells; for OCI-LY10 % IRAK4 Degradation: IRAK4 degraded after 4 hours, western blot; for OCI-LY10 % IRAK4 Degradation (0.01 uM) / OCI-LY10 % IRAK4 Degradation (0.1 uM) / OCI-LY10 % IRAK4 Degradation (1 uM): 4 hours; for OCI-LY10 % IRAK4 Degradation (0.01 uM): 0.01 uM compound; for OCI-LY10 % IRAK4 Degradation (0.1 uM): 0.1 uM compound; for OCI-LY10 % IRAK4 Degradation (1 uM): 1 uM compound. In a few lines:
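IRAK4 loss after 4 h at 37° C was scored A (>50%), B (>20-50%) or C (<20%) from infrared western blots of RIPA lysates, 20-25 μg protein per lane. Compound was applied at 0.003-10 μM final to OCI-LY10 cells cultured in RPMI-1640 with 20% FBS and 55 μM 2-ME.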

The source of these data is patent US10874743B2, “IRAK degraders and uses thereof” (Kymera Therapeutics, Inc., priority 2017, dated 2020).

For `N#Cc1cnc2c(cnn2-c2cc(NC3CC3)c(C(=O)NCC(F)COCCNCCOCCNc3cccc4c3C(=O)N(C3CCC(=O)NC3=O)C4=O)cn2)c1` (stereo not drawn) [I-94, 6-(5-Cyano-1H-pyrazolo[3,4-b]pyridin-1-yl)-4-(cyclopropylamino)-N-(3-(2-((2-(2-((2-(2,6-dioxopiperidin-3-yl)-1,3-dioxoisoindolin-4-yl)amino)ethoxy)ethyl)amino)ethoxy)-2-fluoropropyl)nicotinamide], the “OCI-LY10 % IRAK4 Degradation” value is “B (>20-50% degradation)”.
Consider `O=C1CCC(N2C(=O)c3cccc(OCc4cnnn4CCOCCOCCNCn4cc(NC(=O)c5coc(-c6ccnc(NCC7CC7)c6)n5)c(C(F)F)n4)c3C2=O)C(=O)N1` (stereo not drawn) [I-383], for which the “OCI-LY10 % IRAK4 Degradation (0.01 uM)” value is given as “C (<20% degradation)”, the “OCI-LY10 % IRAK4 Degradation (0.1 uM)” value was “C (<20% degradation)” and the “OCI-LY10 % IRAK4 Degradation (1 uM)” value is “A (>50% degradation)”.
Turning to `N#Cc1cnc2c(cnn2-c2cc(NC3CC3)c(C(=O)NCC(F)COCCOCCOCCNc3cccc4c3C(=O)N(C3CCC(=O)NC3=O)C4=O)cn2)c1` (stereo not drawn) [I-46, 6-(5-Cyanopyrazolo[3,4-b]pyridin-1-yl)-4-(cyclopropylamino)-N-[3-[2-[2-[2-[[2-(2,6-dioxo-3-piperidyl)-1,3-dioxo-isoindolin-4-yl]amino]ethoxy]ethoxy]ethoxy]-2-fluoro-propyl]pyridine-3-carboxamide], the “OCI-LY10 % IRAK4 Degradation” value is on record as “C (<20% degradation)”.
In the case of `NC(=O)c1nn(-c2ccc(C(=O)NCCOCCCc3cccc4c3C(=O)N(C3CCC(=O)NC3=O)C4=O)cc2)cc1NC(=O)c1coc(-c2ccnc(NCC(F)(F)F)c2)n1` (stereo not drawn) [I-234], the “OCI-LY10 % IRAK4 Degradation (0.01 uM)” value is reported as “C (<20% degradation)”, the “OCI-LY10 % IRAK4 Degradation (0.1 uM)” value is given as “B (>20-50% degradation)” and the “OCI-LY10 % IRAK4 Degradation (1 uM)” value was “B (>20-50% degradation)”.
Turning to `N#Cc1cnc2c(cnn2-c2cc(NC3CC3)c(C(=O)NCC(F)COCCNc3cccc4c3C(=O)N(C3CCC(=O)NC3=O)C4=O)cn2)c1` (stereo not drawn) [I-82], the “OCI-LY10 % IRAK4 Degradation” value is recorded as “C (<20% degradation)”.
As to `N#Cc1ccc2ncc(-c3cccc(NC4CCN(CCCCCOCCOCCCCCNC(=O)COc5cccc6c5C(=O)N(C5CCC(=O)NC5=O)C6=O)C4)n3)n2c1` (stereo not drawn) [I-204], the “OCI-LY10 % IRAK4 Degradation” value is on record as “C (<20% degradation)”.
As for `CC(C)(OCCNc1cccc2c1C(=O)N(C1CCC(=O)NC1=O)C2=O)C(F)CNC(=O)c1cnc(-n2ncc3cc(C#N)cnc32)cc1NC1CC1` (stereo not drawn) [I-75], the “OCI-LY10 % IRAK4 Degradation” value is reported as “C (<20% degradation)”.
On to `Cc1ncsc1-c1ccc(CNC(=O)C2C[C@@H](O)CN2C(=O)[C@@H](NC(=O)COCCOCCOCCOCCOC(C)(C)C(F)CNC(=O)c2cnc(-n3ncc4cc(C#N)cnc43)cc2NC2CC2)C(C)(C)C)cc1` (stereo partly drawn) [I-118, 6-(5-Cyanopyrazolo[3,4-b]pyridin-1-yl)-4-(cyclopropylamino)-N-[2-fluoro-3-[2-[2-[2-[2-[2-[[(1S)-1-[(4R)-4-hydroxy-2-[[4-(4-methylthiazol-5-yl)phenyl]methylcarbamoyl]pyrrolidine-1-carbonyl]-2,2-dimethyl-propyl]amino]-2-oxo-ethoxy]ethoxy]ethoxy]ethoxy]ethoxy]-3-methyl-butyl]pyridine-3-carboxamide], for which the “OCI-LY10 % IRAK4 Degradation” value was “C (<20% degradation)”.
In the case of `CN(CCOCCCc1cccc2c1C(=O)N(C1CCC(=O)NC1=O)C2=O)C(=O)c1ccc(-n2cc(NC(=O)c3coc(-c4ccnc(NCC5CC5)c4)n3)c(C(N)=O)n2)cc1` (stereo not drawn) [I-229], the “OCI-LY10 % IRAK4 Degradation (0.01 uM)” value is listed as “C (<20% degradation)”, the “OCI-LY10 % IRAK4 Degradation (0.1 uM)” value is “C (<20% degradation)” and the “OCI-LY10 % IRAK4 Degradation (1 uM)” value was “C (<20% degradation)”.
As for `O=C1CCC(N2C(=O)c3ccc(OCCc4cnnn4CCOCCOCCNCc4ccc(-n5cc(NC(=O)c6coc(-c7ccnc(NCC8CC8)c7)n6)c(C(F)F)n5)cc4)cc3C2=O)C(=O)N1` (stereo not drawn) [I-347], the “OCI-LY10 % IRAK4 Degradation (0.01 uM)” value is given as “C (<20% degradation)”, the “OCI-LY10 % IRAK4 Degradation (0.1 uM)” value is “A (>50% degradation)” and the “OCI-LY10 % IRAK4 Degradation (1 uM)” value is listed as “A (>50% degradation)”.
With `O=C1CCC(N2C(=O)c3ccc(NCc4cn(CCOCCOCCNCc5ccc(-n6cc(NC(=O)c7coc(-c8ccnc(NCC9CC9)c8)n7)c(C(F)F)n6)cc5)nn4)cc3C2=O)C(=O)N1` (stereo not drawn) [I-341], the “OCI-LY10 % IRAK4 Degradation (0.01 uM)” value is “C (<20% degradation)”, the “OCI-LY10 % IRAK4 Degradation (0.1 uM)” value was “A (>50% degradation)” and the “OCI-LY10 % IRAK4 Degradation (1 uM)” value is on record as “A (>50% degradation)”.
Take `Cn1c(=O)n(C2CCC(=O)NC2=O)c2ccc(CCCOCCOCCNCc3ccc(-n4cc(NC(=O)c5coc(-c6ccnc(NCC(F)(F)F)c6)n5)c(C(N)=O)n4)cc3)cc21` (stereo not drawn) [I-327]: the “OCI-LY10 % IRAK4 Degradation (0.01 uM)” value was “C (<20% degradation)”, the “OCI-LY10 % IRAK4 Degradation (0.1 uM)” value was “B (>20-50% degradation)” and the “OCI-LY10 % IRAK4 Degradation (1 uM)” value is reported as “A (>50% degradation)”.
As to `NC(=O)c1nn(C2CCC(C(=O)NCCOCCOCCNc3cccc4c3C(=O)N(C3CCC(=O)NC3=O)C4=O)CC2)cc1NC(=O)c1coc(-c2ccnc(NCC(F)(F)F)c2)n1` (stereo not drawn) [I-139], the “OCI-LY10 % IRAK4 Degradation” value is listed as “B (>20-50% degradation)”.
Regarding `CC(C)(OCCOCCOCCOCCOCCNc1cccc2c1C(=O)N(C1CCC(=O)NC1=O)C2=O)C(F)CNC(=O)c1cnc(Nc2ccc3cnccc3n2)cc1NC1CC1` (stereo not drawn) [I-64], the “OCI-LY10 % IRAK4 Degradation” value is “C (<20% degradation)”.
On the same count and under the same terms, to `CC[C@@H]1[C@H](F)C(=O)N[C@@H]1COc1nccc2cc(C(=O)NCCOCCOCCOCCOCCNc3cccc4c3C(=O)N(C3CCC(=O)NC3=O)C4=O)c(OC)cc12` (stereo partly drawn) [I-78] belongs “C (<20% degradation)”; to `Cc1ncsc1-c1ccc(CNC(=O)[C@@H]2C[C@@H](O)CN2C(=O)[C@@H](NC(=O)COCCOCCOCCOCCOCCNC(=O)C(F)CNC(=O)c2cnc(Nc3ccc4cnccc4n3)cc2NC2CC2)C(C)(C)C)cc1` (stereo partly drawn) [I-207], “C (<20% degradation)”.
As for `O=C1CCC(N2C(=O)c3cccc(NCCc4cnnn4CCOCCOCCNCc4ccc(-n5cc(NC(=O)c6coc(-c7ccnc(NCC8CC8)c7)n6)c(C(F)F)n5)cc4)c3C2=O)C(=O)N1` (stereo not drawn) [I-342], the “OCI-LY10 % IRAK4 Degradation (0.01 uM)” value was “C (<20% degradation)”, the “OCI-LY10 % IRAK4 Degradation (0.1 uM)” value is listed as “B (>20-50% degradation)” and the “OCI-LY10 % IRAK4 Degradation (1 uM)” value is “A (>50% degradation)”.
For `CC(C)(OCCCOCCCNc1cccc2c1C(=O)N(C1CCC(=O)NC1=O)C2=O)C(F)CNC(=O)c1cnc(-n2ncc3cc(C#N)cnc32)cc1NC1CC1` (stereo not drawn) [I-86], the “OCI-LY10 % IRAK4 Degradation” value was “C (<20% degradation)”.
Same read-out and setting: to `NC(=O)c1nn(-c2ccc(C(=O)NCCOCCOCCOCCOCC#Cc3ccc4c(c3)C(=O)N(C3CCC(=O)NC3=O)C4=O)cc2)cc1NC(=O)c1coc(-c2ccnc(NCC(F)(F)F)c2)n1` (stereo not drawn) [I-149] belongs “A (>50% degradation)”.
Turning to `O=C1CCC(N2C(=O)c3cccc(NCCOCCOCC(F)CNC(=O)c4cnc(Nc5ccc6cnccc6n5)cc4NC4CC4)c3C2=O)C(=O)N1` (stereo not drawn) [I-61], the “OCI-LY10 % IRAK4 Degradation” value was “C (<20% degradation)”.
For the molecule `Cn1c(=O)n(C2CCC(=O)NC2=O)c2cccc(CCCOCCOCCNC(=O)c3ccc(-n4cc(NC(=O)c5coc(-c6ccnc(NCC(F)(F)F)c6)n5)c(C(N)=O)n4)cc3)c21` (stereo not drawn) [I-249], the “OCI-LY10 % IRAK4 Degradation (0.01 uM)” value is “C (<20% degradation)”, the “OCI-LY10 % IRAK4 Degradation (0.1 uM)” value is “A (>50% degradation)” and the “OCI-LY10 % IRAK4 Degradation (1 uM)” value is “A (>50% degradation)”.
Turning to `NC(=O)c1nn(-c2ccc(CNCCCCCCCCCc3cccc4c3C(=O)N(C3CCC(=O)NC3=O)C4=O)cc2)cc1NC(=O)c1coc(-c2ccnc(NCC3CC3)c2)n1` (stereo not drawn) [I-317], the “OCI-LY10 % IRAK4 Degradation (0.01 uM)” value is reported as “C (<20% degradation)”, the “OCI-LY10 % IRAK4 Degradation (0.1 uM)” value is listed as “C (<20% degradation)” and the “OCI-LY10 % IRAK4 Degradation (1 uM)” value is listed as “B (>20-50% degradation)”.
As for `CC(C)(OCCNc1cccc2c1C(=O)N(C1CCC(=O)NC1=O)C2=O)C(F)CNC(=O)c1cnc(Nc2ccc3cnccc3n2)cc1NC1CC1` (stereo not drawn) [I-74], the “OCI-LY10 % IRAK4 Degradation” value is listed as “C (<20% degradation)”.
Still for that read-out and setting: as for `O=C1CCC(N2C(=O)c3cccc(NCCOCc4ccc(COCCNC(=O)[C@H]5CC[C@H](NC(=O)c6cnc(Nc7ccc8cnccc8n7)cc6NC6CC6)CC5)nc4)c3C2=O)C(=O)N1` (stereo partly drawn) [I-41, 6-((1,6-naphthyridin-2-yl)amino)-4-(cyclopropylamino)-N-((1r,4r)-4-((2-((5-((2-((2-(2,6-dioxopiperidin-3-yl)-1,3-dioxoisoindolin-4-yl)amino)ethoxy)methyl)pyridin-2-yl)methoxy)ethyl)carbamoyl)cyclohexyl)nicotinamide], the entry is “C (<20% degradation)”.
In the case of `NC(=O)c1nn(-c2ccc(C(=O)NCCOCCOCCNc3cccc4c3C(=O)N(C3CCC(=O)NC3=O)C4=O)cc2)cc1NC(=O)c1coc(-c2ccnc(C3CC3)c2)n1` (stereo not drawn) [I-424], the “OCI-LY10 % IRAK4 Degradation (0.01 uM)” value is reported as “B (>20-50% degradation)”, the “OCI-LY10 % IRAK4 Degradation (0.1 uM)” value was “B (>20-50% degradation)” and the “OCI-LY10 % IRAK4 Degradation (1 uM)” value is given as “B (>20-50% degradation)”.
With `O=C1CCC(N2C(=O)c3ccc(NCCc4cnnn4CCOCCOCCNCc4ccc(-n5cc(NC(=O)c6coc(-c7ccnc(NCC8CC8)c7)n6)c(C(F)F)n5)cc4)cc3C2=O)C(=O)N1` (stereo not drawn) [I-343], the “OCI-LY10 % IRAK4 Degradation (0.01 uM)” value is on record as “C (<20% degradation)”, the “OCI-LY10 % IRAK4 Degradation (0.1 uM)” value is “B (>20-50% degradation)” and the “OCI-LY10 % IRAK4 Degradation (1 uM)” value is on record as “A (>50% degradation)”.
